Reference: ChEMBL document CHEMBL6127021, “Inhibition of protein tyrosine phosphatase 1B by serratane triterpenes from Huperzia serrata and their molecular docking study” (Bioorg Med Chem Lett, 2024)

How the values were obtained:
[1] = target: T1, Tyrosine-protein phosphatase non-receptor type 1 (Homo sapiens, UniProt P18031); assay: Competitive inhibition of recombinant human PTP1B using p-NPP as substrate assessed as inhibition constant incubated for 30 mins by Lineweaver-Burk plot analysis
T1 sequence (P18031 whole entry): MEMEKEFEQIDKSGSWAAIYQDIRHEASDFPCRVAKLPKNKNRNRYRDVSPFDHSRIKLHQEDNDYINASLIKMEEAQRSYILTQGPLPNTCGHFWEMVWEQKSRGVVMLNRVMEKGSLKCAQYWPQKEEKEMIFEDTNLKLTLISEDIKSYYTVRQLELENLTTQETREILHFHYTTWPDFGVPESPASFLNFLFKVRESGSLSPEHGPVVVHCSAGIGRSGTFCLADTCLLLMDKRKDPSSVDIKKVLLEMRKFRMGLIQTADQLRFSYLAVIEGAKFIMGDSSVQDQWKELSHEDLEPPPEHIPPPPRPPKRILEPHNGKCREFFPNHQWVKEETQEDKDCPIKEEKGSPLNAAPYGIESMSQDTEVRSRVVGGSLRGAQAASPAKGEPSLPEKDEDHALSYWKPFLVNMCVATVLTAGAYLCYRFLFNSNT

[2] = target: T1, Tyrosine-protein phosphatase non-receptor type 1; assay: Inhibition of recombinant human PTP1B using p-NPP as substrate incubated for 30 mins by absorbance based microplate reader

A Ki [1] of 11.9 µM and an IC50 [2] of 4.65 µM were found for `CC1(C)[C@@H](O)CC[C@@]2(C)[C@H]1CC[C@@]1(C)CC3=CC[C@H]4C(C)(C)[C@H](O)CC[C@]4(C)[C@H]3CC[C@@H]12` in this work.
A Ki [1] of 12.2 µM and an IC50 [2] of 7.28 µM were found for `CC1(C)[C@@H](O)CC[C@@]2(C)[C@H]1CC[C@@]1(C)CC3=CC[C@H]4C(C)(C)[C@@H](O)CC[C@]4(C)[C@H]3CC[C@@H]12` in this work.
An IC50 [2] of over 30 µM was found for `CC(=O)O[C@H]1CC[C@@]2(C)[C@@H](CC[C@]3(O)C[C@]4(C)CC[C@H]5C(C)(C)[C@@H](O)CC[C@]5(C)[C@H]4CC[C@@H]32)C1(C)C` in this work.
An IC50 [2] of over 30 µM was found for `CC(=O)O[C@H]1CC[C@@]2(C)[C@@H](CC[C@@]3(C)CC4=CC[C@H]5C(C)(C)[C@@H](O)CC[C@]5(C)[C@H]4CC[C@@H]32)C1(C)C` in this work.
